Assay results taken from BindingDB's records for doi:10.1074/jbc.M113.532804 (University of Wuerzburg, 2014).

Columns and labels:
[1] = molecular target: T1, Enoyl-[acyl-carrier-protein] reductase [NADPH] FabI (Staphylococcus aureus (strain NCTC 8325 / PS 47), UniProt Q2FZQ3); test: Inhibition Kinetics Assay; details: pH 7.5
T1 sequence (Q2FZQ3 whole entry): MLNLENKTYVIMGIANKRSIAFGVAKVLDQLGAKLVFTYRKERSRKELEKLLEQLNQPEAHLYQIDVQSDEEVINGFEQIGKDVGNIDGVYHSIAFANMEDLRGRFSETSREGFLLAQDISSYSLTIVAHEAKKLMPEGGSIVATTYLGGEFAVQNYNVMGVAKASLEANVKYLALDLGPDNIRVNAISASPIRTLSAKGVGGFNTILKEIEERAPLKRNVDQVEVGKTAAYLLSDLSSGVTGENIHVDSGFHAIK
Procedure: (§1) Kinetics were performed on a Cary 100 spectrophotometer (Varian) at 20 °C.

[2] = molecular target: T2, Enoyl-[acyl-carrier-protein] reductase [NADH] FabI (Escherichia coli (strain K12), UniProt P0AEK4); test: Inhibition Kinetics Assay; details: pH 7.5
T2 sequence (P0AEK4 whole entry): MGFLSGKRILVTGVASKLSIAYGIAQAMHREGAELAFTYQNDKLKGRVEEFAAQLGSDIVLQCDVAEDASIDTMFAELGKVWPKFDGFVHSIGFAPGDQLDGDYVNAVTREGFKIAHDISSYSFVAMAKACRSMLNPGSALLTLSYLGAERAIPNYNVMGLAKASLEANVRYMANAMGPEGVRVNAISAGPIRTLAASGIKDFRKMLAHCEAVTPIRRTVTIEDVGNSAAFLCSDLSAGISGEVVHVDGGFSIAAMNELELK
Procedure: as §1

| Ki [1] [nM] | SMILES | Ki [2] [nM] |
| --- | --- | --- |
| 19 | CCCCCCc1ccn(Cc2ccccc2)c(=O)c1 [PT179] |  |
| 196 | CCCCCCc1ccc(Oc2ccccc2)c(=O)[nH]1 [PT191] |  |
| 229 | Cc1ccn(Cc2ccccc2Cl)c(=O)c1 [PT170] |  |
| 11 | CCCCCCc1ccn(Cc2ccccc2Cl)c(=O)c1 [PT172] |  |
| 1.3 | Cc1c(N)cccc1Cn1ccc(OCCc2cccs2)cc1=O [CG400549] |  |
| 29.6 | CCCCCc1ccn(Cc2ccccc2C#N)c(=O)c1 [PT420] |  |
| 11 | CCCCCCc1cc(=O)c(Cc2ccccc2C#N)cn1C [PT159] |  |

| SMILES | Ki [1] [nM] | Ki [2] [nM] |
| --- | --- | --- |
| CCCCCCc1cc(=O)c(Oc2ccccc2C)cn1C [PT166] | 2.7 | 7 |
| CCCCCCc1ccn(Cc2cccc(N)c2C)c(=O)c1 [PT173] | 2 | 203 |
| CCCCCCc1ccn(Cc2ccccc2C)c(=O)c1 [PT171] | 11.9 | 95.7 |
